How the values were obtained:
ApoE knockout mice = assay: Prevention of aortic lesions in ApoE knockout mice on high fat diet; assay type: in vivo; details: liposomes intravenously once every four days, five doses at 6 mg/kg; 20 days high fat diet
From the text: In prevention experiments, ApoE knockout mice were placed on a high fat diet and at the same time received once every four days liposomes containing a peptide corresponding to amino acids 1-20 of murine SAA2.1 (SEQ ID NO:1; Group 2 of FIG. 8A and Group hf+p1 of FIG. 8B), liposomes containing a peptide corresponding to amino acids 74-103 of murine SAA2.1 (SEQ ID NO:4; Group 4 of FIG. 8A and Group hf+p4 of FIG. 8B) or liposomes containing a peptide corresponding to amino acids 1-20 of murine SAA2.1 and a peptide corresponding to amino acids 74-103 of murine SAA2.1 (SEQ ID NO:1+SEQ ID NO:4; Group 5 of FIG. 8A and Group hf+p(1+4) of FIG. 8B). The control group received high fat diet alone with no liposomes (Group 1 of FIG. 8A and Group high fat of FIG. 8B). An additional group was placed on a normal mouse chow diet (Group 3 of FIG. 8A and Group low fat of FIG. 8B). […]
To assess the effects of the peptides on aortic atherosclerosis, at the termination of the experiment, the aorta was removed from the animals and opened longitudinally. The endothelial surface was stained with Oil Red O and the area occupied by lipid was measured by image analysis. Furthermore, histological sections of aorta were prepared for microscopic analysis and total lipids were isolated to measure the quantity of cholesterol per weight of tissue. […]

[1] = system: [3H]-cholesterol-loaded J774 macrophages; assay: In vivo cholesterol efflux to plasma in mice injected with [3H]-cholesterol-loaded J774 macrophages; details: for [3H]-cholesterol efflux as plasma radioactivity (dpm) (FIG. 1): intravenous liposomes containing 0.5 μM peptide, 24 hours after macrophages
Description: In these experiments, in vivo cholesterol export was determined in mice injected with J774 macrophages cholesterol-loaded with RBC membranes and [^3H]-cholesterol. Two hundred thousand macrophages in 100:1 PBS were injected into each mouse through the tail vein. At various time points thereafter, approximately 25:1 of blood were collected from the tail vein of each animal into heparinized capillary tubes. The tubes were then centrifuged for 5 minutes in an Adams Autocrit Centrifuge to separate red blood cells from plasma. Cholesterol efflux was determined by measuring the appearance of [^3H]-cholesterol in plasma by scintillation spectrometry. To study whether export of cholesterol from J774 cells to plasma was influenced by non-liposome formulated D-27mer peptide (SEQ ID NO:10), 24 hours after injection of cholesterol-loaded J774 macrophages into mice, the same animals received, by intravenous injection, 30 μg, 60 μg, 150 μg, 225 μg, 300 μg or 600 μg of D-27mer. All these amounts of D-peptides were dissolved in 100:l of phosphate buffered saline and injected through the tail vein of each animal.
Additional in vivo studies have also been conducted wherein mice were first injected intravenously with [^3H]cholesterol-laden macrophages and then injected 24 hours later with liposomes containing 0.5 μM of synthetic peptides corresponding to amino acid residues 1-20, 21-50, 51-80 or 74-103 of murine SAA2.1. Results from this study are depicted in FIG. 1. At time points indicated in the graph of FIG. 1, approximately 25 μl of blood were collected from the tail vein of each animal. The blood samples were centrifuged to separate the red blood cells from the plasma and the [^3H]-cholesterol in plasma was determined by scintillation counting. Results are mean±SEM of four determinations.
To determine cholesterol export in vivo, J774 macrophages were cholesterol-loaded with red blood cell membranes and [^3H]-cholesterol as described above. Cells were washed four times with PBS/BSA and then detached from the culture dishes. Five million cells in 200 μl DMEM were injected into control mice or inflamed mice through the tail vein. At various time points, approximately 25 μl of blood were collected from the tail vein of each animal into heparinized capillary tubes and then centrifuged for 5 minutes in an Adams Autocrit Centrifuge to separate red blood cells from plasma. Cholesterol efflux was determined by measuring the appearance of [^3H]-cholesterol in plasma by scintillation spectrometry.
J774 cells cultured in 6-well plates were enriched with cholesterol by incubating with red blood cell (RBC) membrane fragments (175:g as cholesterol) that had been previously labeled with 0.5:Ci/ml [^3H]-cholesterol at 37° C. for 24 hours in 0.2% bovine serum albumin (BSA). After loading with the labelled RBC membrane for 6 hours, cells were then washed with phosphate-buffered saline/BSA (PBS/BSA) three times followed by an 18 hour equilibration period during which monolayers were exposed to DMEM/BSA. To determine cholesterol export in vivo, J774 macrophages were cholesterol-loaded with RBC membranes and [^3H]-cholesterol as described previously above. Cells were washed four times with PBS/BSA and then detached from the culture dishes. Two hundred thousand cells in 100:l PBS were injected into mice through the tail vein. At various time points thereafter, approximately 25:l of blood were collected from the tail vein of each animal into heparinized capillary tubes. These tubes were then centrifuged for 5 minutes in an Adams Autocrit Centrifuge to separate red blood cells from plasma. Cholesterol efflux was determined by measuring the appearance of [^3H]-cholesterol in plasma by scintillation spectrometry. […]

J774 macrophages = assay: [3H]cholesterol efflux from cholesterol-loaded J774 macrophages in tissue culture; assay type: cell-based, mouse; details: for cholesterol efflux compared to equimolar liposomes containing full length murine SAA2.1 protein (FIG. 10): cholesterol-laden J774 cells, equimolar concentrations; for cholesterol efflux as compared to controls (FIGS. 3A and 3B) / dose-response of cholesterol efflux (FIGS. 3A and 3B): liposomes; for cholesterol efflux as compared to controls (FIGS. 3A and 3B): peptide at 1 μM (alone printed 1 μl), cholesterol-laden murine macrophages; for dose-response of cholesterol efflux (FIGS. 3A and 3B): 0.05, 0.1, 0.5, 1.0, 2.5 and 5.0 μM; for total cellular [3H]cholesterol released into the medium: pre-incubated 4 hours with liposomes containing 0.5 μM peptide, then cultured in presence of HDL (50 μg/mL)

DTIADQEANRHGRSGKDPNYYRPPGLPDKY [SEQ ID NO:4, synthetic peptide, residues 74-103 of murine SAA2.1]
aortic lesions, area stained with Oil Red O, versus control animals (FIGS. 8A and 8B) (ApoE knockout mice): showed decreased aortic lesions | [3H]-cholesterol efflux as plasma radioactivity (dpm) (FIG. 1) [1]: dramatically increased | cholesterol efflux compared to equimolar liposomes containing full length murine SAA2.1 protein (FIG. 10) (J774 macrophages): statistically significant greater cholesterol efflux | cholesterol efflux as compared to controls (FIGS. 3A and 3B) (J774 macrophages): approximately 200% | dose-response of cholesterol efflux (FIGS. 3A and 3B) (J774 macrophages): increased with increasing amounts of each peptide alone | total cellular [3H]cholesterol released into the medium (J774 macrophages): 46.7 ± 3.1% | rate of [3H]cholesterol efflux into medium containing HDL (J774 macrophages; pre-incubation with liposomes containing 0.5 μM peptide, HDL as acceptor): significant increase in the rate

GFFSFVHEAFQGAGDMWRAY [SEQ ID NO:1, synthetic peptide, residues 1-20 of murine SAA2.1]
aortic lesions, area stained with Oil Red O, versus control animals (FIGS. 8A and 8B) (ApoE knockout mice): showed decreased aortic lesions | [3H]-cholesterol efflux as plasma radioactivity (dpm) (FIG. 1) [1]: dramatically increased | cholesterol efflux compared to equimolar liposomes containing full length murine SAA2.1 protein (FIG. 10) (J774 macrophages): statistically significant greater cholesterol efflux | cholesterol efflux as compared to controls (FIGS. 3A and 3B) (J774 macrophages): approximately 200% | dose-response of cholesterol efflux (FIGS. 3A and 3B) (J774 macrophages): increased with increasing amounts of each peptide alone | total cellular [3H]cholesterol released into the medium (J774 macrophages): 60.6 ± 3.6%

B1: GFFSFVHEAFQGAGDMWRAYTDMKEANWKNSDKYFHARGNYDAAQRGPGGVWAAEKISD GREAFQEFFGRGHEDTIADQEANRHGRSGKDPNYYRPPGLPDKY (protein, listed as Mus musculis)
chain: GFFSFVHEAFQGAGDMWRAYTDMKEANWKNSDKYFHARGNYDAAQRGPGGVWAAEKISDGREAFQEFFGRGHEDTIADQEANRHGRSGKDPNYYRPPGLPDKY
notes: full length murine serum amyloid A isoform 2.1 purified from acute phase plasma
cholesterol release from macrophages pretreated with protein liposomes and injected into un-inflamed mice ([1]; cholesterol-loaded macrophages pretreated with liposomes, injected intravenously): recapitulated the major cholesterol releasing effect | radiolabeled cholesterol exported in the plasma (FIG. 15) ([1]; non-liposome formulated, in 100 μl PBS, intravenous, 15 μg/mouse peptide or 75 μg/mouse full length protein): exceeded the increase observed following administration of the D-27mer peptide
